# Measured values reported in patent US11793816B2, “Methods for enhancing cytotoxic cancer therapy through inhibition of ATG4B” (Northwestern University, priority 2019, dated 2023).
# Tests used:
# [1] = Toxicity evaluation of NSC185058 in mouse organs (behavior, hematoxylin and eosin staining); format: in vivo, mice; settings: for pathologic analysis of vital organs (hematoxylin and eosin): 150 mg/kg Monday, brain, heart, liver, lung, kidney, spleen, one week after last dosing
# Protocol: FIG. 1. NSC185058 (NSC) effectively distributes to the plasma, the brain, and the liver with minimal toxicity in mice. (A) to (C) Mice were dosed with peanut oil vehicle or ATG4B antagonists NSC185058 at doses of 10 or 50 mg/kg body weight. Plasma, the brain, and the liver tissues were collected at the indicated time points. (A) Total concentrations of the NSC compound in plasma were measured by LC-MS/MS. The PK parameter of NSC in plasma was determined. (B) NSC levels in plasma were determined form 5 min to 24 hr post dosing. The chemical structure of NSC was shown. (C) NSC levels were determined in the plasma, the brain, and the liver tissues at 0.5 and 8 hr post dosing. (D) Hematoxylin and eosin stained section s of indicated organs that were treated with NSC (150 mg/kg body weight) or vehicle on Monday, Wednesday, and Friday for three weeks. Scale bars, 50 μm. n=3 mice/group/time point.
# Mice were randomized into two groups before the start of experiment. Animals received peanut oil vehicle (control) or ATG4B antagonists NSC185058 (150 mg/kg body weight) on Monday, Wednesday, and Friday for tow to three weeks. Then, mouse tissues and organs including the liver, the kidney, the lung, the spleen, the heart, and the brain were collected after one week post last dose. All specimens were immediately formalin-fixed for 24-36 hrs and then embedded in paraffin embedded. Five micrometer-thick serial sections were obtained from each samples for standard hematoxylin and eosin staining.
# The NSC was administered at the dose of 10 or 50 mg/kg body weight in group of three mice. At the indicated time points spanning a 24 hrs period ([…], 0.5, 1, 2, 4, 8, and 24 hour), the plasma, the brain, and the liver tissues were collected. Plasmid and extracts from the brain and the liver were analyzed by LC-MS/MS using method developed at the Illinois Institute of Technology Research Institute (IITRI). […] Plasma exposure appears to increase beyond the hinge in dose for the dosing range tested. The elimination half-life was 2 and 4 for the 10 and 50 mg/kg dose, respectively. […] To examine whether NSC is tolerated in mouse, we investigated the effect induced by NSC in mouse behavior or by pathologic analysis of vital organs including the brain, the heart, the liver, the lung, the kidney, and the spleen. Mice underwent treatments on Monday, Wednesday, and Friday for three week with either peanut oil (vehicle) or NSC (150 mg/kg body weight) in peanut oil. […] Animal tissues were collected one week after the last dosing and subject for hematoxylin and eosin staining.
# [2] = system: GSC JK83 orthotopic xenografts; assay: GSC JK83 orthotopic brain tumor xenograft model (survival, BLI, tissue staining); format: in vivo, mice
# Excerpt: FIG. 7. NSC enhance anticancer efficacy of AZD2014 in a patient-derived GSC xenograft model. […] Treatments were started at one week post-implantation. Bioluminescent (BLI) images were taken after the last treatment, and representative images are shown. Scale bar, photons/sec/cm2/steradian. (B) Kaplan-Meier of mice bearing GSC JK83 orthotopic xenografts with indicated treatments. (C) The brains of mice bearing orthotopic xenografts with indicated treatments were collected for immunohistochemical evaluation using indicating antibody. *P<0.05, **p<0.01, […]. Data are representative from three independent experiments with similar results.
# Frozen brain tissue sections with GBM xenografts were dried and then fixed in were fixed in 4% paraformaldehyde (PFA) in PBS for 5 minutes. Tissue sections were blocked with AquaBlock (East Coast Bio, North Berwick, Me.) for an hour and then were probed with appropriate primary antibodies 4° C. overnight. Tissue sections were incubated with Alexa 488 or 594 labelled secondary antibodies (1:200) and DAPI-containing mounting solution Vectashield (Vector Laboratories), and representative images were photographed using a Nikon inverted microscope Eclipse Ti-U equipped with a digital camera.
# To determine whether the enhancement of AZD2014 therapeutic efficiency by combination with NSC measured in vitro extends to an orthotopic model, GSC JK83 glioma spheres were employed to initiate intracerebral xenografts in mice.
# [3] = system: mTORC1 and mTORC2 activity in GSC M83 and JK83 cells; assay: Immunoblot of mTORC1 and mTORC2 activity in GSCs; format: cell-based; settings: GSC83 and JK83 cells, 72 hr
# Protocol: FIG. 5. A mTORC1/2 inhibitor AZD2014 inhibited cell survival, mTORC1 and mTORC2 activities in GSCs and glioma cells. (A) GSC M83 and JK83 and glioma cells U87 were treated with indicated concentration of AZD2014 for 72 h, then cell viability was evaluated. (B) GSC M83 and JK83 were treated with the indicated concentration of AZD2014 for 1 hr, or with 2 μM AZD2014 for the specified time. Cells were collected for immunoblot analysis. β-actin was used as a loading control; Results are representative of 2 independent experiments. *P<0.05, **P<0.01, paired two-way Student's t-test. Data are representative from three independent experiments with similar results.
# FIG. 6. NSC enhanced the cytotoxicity of a mTORC1/2 inhibitor AZD2014 in GSCs. (A) GSC M83 and JK83 were exposed to DMSO control vs AZD2014 vs NSCs vs AZD2014 in combination with NSC for 72 hr. Cells were collected for immunoblot analysis using indicated antibodies. (B) Immunofluorescence analyses for LC3B puncta in GSC M83 and JK83 cells with indicated treatments. (C and D) GSC M83 and JK83 and/or neural progenitor cells (NPC) were treated as indicated in (A), cell viability was tested at 72 h after treatment (C), and cell apoptosis was measured by Annexin V FACS assay 48 h after treatment. Data are representative from three independent experiments with similar results.
# IB assays were performed as previously described (Huang et al., 2016b). Specific antibodies were used according to the manufacturer's instructions: LC3B (#3868S), pAKT (Ser473; 4060), pAKT(Thr308; 4056), AKT (4691), pS6(S235/236; 2211), S6 (2317), phosphorylated 4E-binding protein 1 (p4EBP1) (Thr37/46; 2855), 4EBP1 (9644), p-mTOR (Ser2448; 2971S), p-mTOR (Ser2481; 2974S), mTOR (2972S), pULK1(Ser317; 14202T), pULK1 (Ser757; 8054T), ULK1(6439), LAMP2 (49067S) were from Cell Signaling Technology. Anti-β-actin (SC-47778) and anti-SQSTM1/p62 (SC-28359) antibodies were from Santa Cruz Biotechnology. An anti-Ki-67 antibody (AB9260) was from EMD Millipore.
# mTOR kinases are crucial regulators of glioma cell growth, proliferation and survival (Akhavan et al., 2010). […] A strong inhibition was achieved by 1 μM with complete block of mTORC1/2 activities at 2 μM (FIG. 5B).
# Since autophagy activation is considered as a cytoprotective factor that contribute to tumor survival when challenged by therapies, it is proposed that block of autophagy activation by NSC would further enhanced the cytotoxicity of dual TORC1/2 inhibitor AZD2014.
structure (smiles),measurement,setting,value
"S=C(Nc1ccccn1)c1ccccn1 [NSC185058, N-pyridin-2-yl-pyridine-2-carbothioamide]",pathologic analysis of vital organs (hematoxylin and eosin),"[1]; Wednesday, Friday for three weeks",no relevant tissue toxicity
same,pathologic analysis of vital organs (hematoxylin and eosin),"[1]; Wednesday, Friday for three weeks, listed as NSC",no morphological changes or abnormal findings
same,mouse behavior,"[1]; 150 mg/kg in peanut oil, Monday, Wednesday, Friday for three weeks",did not display behavioral changes
same,toxic effects on the animals,[1]; mice,did not display any toxic effects
same,autophagic flux (LC3B puncta staining) in brain tumor xenografts,[2]; NSC (50 mg/kg) alone,slight impact on autophagic flux
same,AZD2014-induced autophagy response in the brain,[2]; NSC (50 mg/kg) in the combination protocol,strongly attenuated AZD2014-induced autophagy response
same,mouse survival,"[2]; NSC (100 mg/kg), AZD2014 (50 mg/kg), alone or combined, vs control",modest but significant effects on mouse survival
same,effect of NSC on inhibition efficiency of AZD2014 on xenograft growth,[2]; combination treatment,enhanced the inhibition efficiency of AZD2014
same,mTOR signaling and ULK1 phosphorylation,[3],without affecting the mTOR signaling and ULK1 activity
